Results as given in patent publication US9538749B2, “Methods for increasing oil palm yield” (Valent BioSciences Corporation, priority 2014, dated 2017).
“And” between values parts separate entries of the source, which are not always exact repeats. Identical values can stand only once.

Key:
oil palm fruit [1] = settings: preharvest application to attached bunches; cited from earlier work
oil palm fruit [2] = assay: Field study of fruit abscission (cumulative loose fruit and loose mass) after a single bunch-directed preharvest spray; assay type: in vivo, oil palm (cross between Compact and Ghana); settings: for Cumulative Loose Mass / % Difference with UTC (Cumulative Loose Fruit) / % Difference with UTC (Cumulative Loose Mass) / Cumulative Loose Fruit: single spray 100 mL/bunch; for Cumulative Loose Mass / % Difference with UTC (Cumulative Loose Fruit) / % Difference with UTC (Cumulative Loose Mass): 14 days; for % Difference with UTC (Cumulative Loose Fruit) / % Difference with UTC (Cumulative Loose Mass): vs untreated control; for Cumulative Loose Fruit: counted for 14 days
Experimental: A study was conducted in a plantation in Costa Rica to compare the effects of single bunch-directed applications of: (1) untreated control (water sprayed); (2) AVG at 500 ppm (59.5 g) active ingredient (a.i.); (3) 20 ppm (2.4 g) a.i. of 1-MCP; (4) 67 ppm (8.0 g) a.i. of 1-MCP; and (5) 200 ppm (23.8 g) a.i. of 1-MCP. Total g a.i./ha for each treatment was calculated assuming 7 bunches per palm and 170 palms per ha. In this study, AVG and 1-MCP were provided in a formulation as AVG-HC1 and 1-MCP at concentrations of 20% and 1.3%, respectively.
For each treatment, 27 palms were randomly selected covering about 15 hectares. The variety of plants used was a cross between Compact and Ghana. The plants were three years old at the time of treatment. A CO2 sprayer was used to spray all treatments (100 mL/bunch) to bunches with 1 to 4 loose fruits. The time required to spray each bunch was about 8 seconds at 20 psi using a 2.0 full cone nozzle. The treatments were applied once per bunch. Four, six, four, three and ten bunches per treatment were sprayed on Feb. 6, 13, 20, 27 and Mar. 3, 2015, respectively.
Cumulative loose fruit (CLF) and cumulative loose mass (CLM) counts were determined on a daily basis for 14 days with the exception of days 2 and 9 after initial spray as measure to objectively quantify fruit abscission. An electronic balance was used to weigh all fruit. All loose fruit on the bunch, branches and on the ground was counted and weighted.

oil palm fruit [3] = settings: postharvest application; cited from earlier work

SMILES | Increase of oil content (oil palm fruit [1]) | Cumulative Loose Mass (oil palm fruit [2]; 20 ppm (2.4 g a.i./ha)) | % Difference with UTC (Cumulative Loose Fruit) (oil palm fruit [2]; 20 ppm (2.4 g a.i./ha)) | % Difference with UTC (Cumulative Loose Mass) (oil palm fruit [2]; 20 ppm (2.4 g a.i./ha)) | Cumulative Loose Fruit (oil palm fruit [2]; 20 ppm (2.4 g a.i./ha)) | Cumulative Loose Mass (oil palm fruit [2]; 67 ppm (8.0 g a.i./ha)) | % Difference with UTC (Cumulative Loose Fruit) (oil palm fruit [2]; 67 ppm (8.0 g a.i./ha)) | % Difference with UTC (Cumulative Loose Mass) (oil palm fruit [2]; 67 ppm (8.0 g a.i./ha)) | Cumulative Loose Fruit (oil palm fruit [2]; 67 ppm (8.0 g a.i./ha)) | Cumulative Loose Mass (oil palm fruit [2]; 200 ppm (23.8 g a.i./ha)) | % Difference with UTC (Cumulative Loose Fruit) (oil palm fruit [2]; 200 ppm (23.8 g a.i./ha)) | % Difference with UTC (Cumulative Loose Mass) (oil palm fruit [2]; 200 ppm (23.8 g a.i./ha)) | Cumulative Loose Fruit (oil palm fruit [2]; 200 ppm (23.8 g a.i./ha)) | Effect on oil palm fruit drop (oil palm fruit [2]; preharvest bunch spray, 20, 67 and 200 ppm) | Effect on oil content (oil palm fruit [3]) | Effect on ripening of oil palm fruit (oil palm fruit [3])
O=P(O)(O)CCCl [ethephon, 2-chloroethyl phosphonic acid] | 7% |  |  |  |  |  |  |  |  |  |  |  |  |  |  | 
CC1=CC1 [1-MCP, 1-methylcyclopropene] |  | 1465 g | 6.7% | 17.1% | 138.8 | 1163 g | 28.6% | 34.2% | 106.2 | 1149 g | 29.6% | 36.0% and 35.0% | 104.7 | delayed palm oil fruit drop | reduced oil content | delayed ripening
